Source: PubChem BioAssay AID1288 (Columbia University Molecular Screening Center, 2008)
Active and inactive are the calls of the source. The rule behind the calls is not given here.

experiment: inhibitors of TNFa-induced E-selectin expression, confirmation, imaging, retest plus dose response, cell count (AID 1288); details: human endothelial cells, TNFa-induced E-selectin, imaging; at 2 µM; stronger effect = higher value;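 note: 0% = stimulated vehicle wells and 100% = unstimulated vehicle wells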

Row | Structure (SMILES) | inhibition
1 | CSc1cccc(NC(=O)C2CCCN(S(=O)(=O)c3ccc(F)cc3)C2)c1 (stereo not given) | 35.8% (inactive)
2 | Cc1cccc(NC(=O)Nc2ccc(C#N)cc2)n1 | 4.19% (inactive)
3 | CC(C)(C)c1cc(OC(=O)c2ccncc2)ccc1O | 7.95% (inactive)
4 | Cc1ccc(C2(C)NC(=O)N(CCOc3ccccc3)C2=O)cc1 (stereo not given) | 3.16% (inactive)
5 | CN(C)CCNC(=O)/C(=C/c1ccc(-c2ccc(Cl)cc2)o1)NC(=O)c1ccccc1 | 0.09% (inactive)
6 | Cc1cc(C)n2nc(C(=O)N(C)C(c3ccccc3)c3ccccc3)nc2n1 | 7.77% (inactive)
7 | CCOC(=O)c1ccc(-n2ccnc2)c(NC(=O)c2ccc(Cl)cc2)c1 | 11.1% (inactive)
8 | CCC(CC)C(=O)c1c[nH]c(C(=O)NCCCN2CCOCC2)c1 | 2.64% (inactive)
9 | CN(C)c1ccc(NC(=S)NC(=O)/C=C/c2ccc(Cl)cc2)cc1 | 2.61% (inactive)
10 | CN1c2ccccc2C2(C)CCCC3=Cc4cccc([N+](=O)[O-])c4OC312 (stereo not given) | 2.99% (inactive)
11 | C=CCn1c(O)c(C(C)=Nc2ccc(NC(C)=O)cc2)c(=O)[nH]c1=O | 17.3% (inactive)
12 | CCNC(=O)CN(CCc1ccccc1)S(C)(=O)=O | 7.43% (inactive)
13 | CN1CCN(C(c2ccc(F)cc2)c2nnnn2Cc2cccs2)CC1 (stereo not given) | 10.2% (inactive)
14 | Cn1cc([N+](=O)[O-])c(C(=O)Nc2ccc(Br)cn2)n1 | 7.96% (inactive)
15 | COc1ccc(/C(O)=C2/C(=O)C(=O)N(Cc3cccnc3)C2c2ccncc2)cc1F (stereo not given) | 19.1% (inactive)
16 | Cc1sc(NC(=O)c2ccco2)c(CN2CCN(c3ccccn3)CC2)c1C | 24.4% (inactive)
17 | Cc1ccc(NC(=O)CSc2nc3ccccc3c3nc(CCc4c(C)n[nH]c4C)nn23)cc1F | 47.2% (inactive)
18 | Cc1cc([N+](=O)[O-])nn1CCCC(=O)Nc1sc2c(c1C(N)=O)CCC(C)C2 (stereo not given) | 1.33% (inactive)
19 | CC(C)CCNC(=O)C1CCN(c2nc3ccccc3o2)CC1 | 12.3% (inactive)
20 | O=c1cc(-c2ccccc2)c2ccccc2[nH]1 | 35% (inactive)
21 | CCCCCn1c(CN2CCN(Cc3ccccc3)CC2)nc2c1c(=O)n(C)c(=O)n2C | 2.55% (inactive)
22 | COc1ccc(-c2nc3cnccn3c2NC(C)(C)CC(C)(C)C)cc1O | 6.02% (inactive)
23 | CC1(C)NC(=O)N(CC(O)COc2cc3ccccc3cc2C(=O)N2CCCCC2)C1=O (stereo not given) | 7% (inactive)
24 | CCSc1nnc(-c2cccs2)o1 | 6.52% (inactive)
25 | c1ccc(NC2=NCCCCS2)cc1 | 15.9% (inactive)

Row | Structure (SMILES) | inhibition
26 | Cc1ccc(/C=C/C(=O)O)cc1S(=O)(=O)NCCO | 1.34% (inactive)
27 | O=C(/C=C/c1ccccc1)N1CCC(Cc2ccccc2)CC1 | 9.46% (inactive)
28 | CC(=O)OC(C(=O)NCc1ccco1)c1cccnc1 (stereo not given) | 6.49% (inactive)
29 | OC(c1ccc2c(c1)OCO2)c1nccc2ccccc12 (stereo not given) | 4.74% (inactive)
30 | Cc1ccc(N2C(=O)[C@@H]3C(C(=O)CCN4C(=O)c5ccccc5C4=O)=NN[C@@H]3C2=O)cc1 | 6.74% (inactive)
31 | Cc1ccc(NC(=O)c2ccc(OC(=O)CCN3C(=O)c4ccccc4C3=O)cc2)cc1 | 42.6% (inactive)
32 | COc1cccc(CNc2ccc(F)c(Cl)c2)c1 | 39.9% (inactive)
33 | Cc1nn(-c2ccccc2)c(Cl)c1CN(C(=O)CCl)c1cccc2ccccc12 | 14.8% (inactive)
34 | CCOC(=O)C[n+]1c(C)sc2ccc(OC)cc21 | 5.31% (inactive)
35 | CC1(C)CC(=O)C(C=NCC2CCCO2)=C(O)C1 (stereo not given) | 17.9% (inactive)
36 | COc1ccc(Br)cc1CN(C)CC(=O)Nc1cc(Cl)ccc1Cl | -1.79% (inactive)
37 | O=S(=O)(c1ccccc1)N1CCN(CC(O)COc2ccc3c(c2)CCC3)CC1 (stereo not given) | 4.13% (inactive)
38 | CC(C)=C1SC(N2CCN(c3ccc(C)cc3)CC2)=NC1=O | -3.72% (inactive)
39 | CC(OC(=O)c1ccco1)C(=O)NC1CCCCC1 (stereo not given) | 18.2% (inactive)
40 | O=C(CN(C(=O)CCC(=O)Nc1ccccn1)c1ccc2c(c1)OCO2)NCc1ccco1 | 36.3% (inactive)
41 | CC(CCc1ccccc1)NC(=O)/C=C/c1ccc(Cl)cc1 (stereo not given) | 14.9% (inactive)
42 | CCOC(=O)N1CCC(N2CCN(S(=O)(=O)c3ccc(NC(C)=O)cc3)CC2)CC1 | 5.13% (inactive)
43 | COc1ccc(N/C=C/C(=O)c2ccc(C)cc2)c([N+](=O)[O-])c1 | 17.3% (inactive)
44 | NC(=O)NOCc1ccccc1 | -1.04% (inactive)
45 | COC(=O)CCC(=O)Nc1nc(-c2ccccc2)cs1 | 16.6% (inactive)
46 | CCC(=O)c1ccc(N2CCOCC2)c(F)c1 | 10.3% (inactive)
47 | Cc1ccc(CNC(=O)C2CCN(S(=O)(=O)c3c(C)noc3/C=C/c3ccco3)CC2)cc1 | 4.12% (inactive)
48 | COc1cc(C(=O)Nc2ccc3c(c2)C(=O)c2ccccc2C3=O)cc(OC)c1OC | 12.8% (inactive)
49 | O=C(O)C1CCCN1S(=O)(=O)c1ccc(Br)s1 (stereo not given) (tested in a mixture with another compound) | 6.99% (inactive)
50 | O=C(Nc1cccs1)Nc1c(F)c(F)c(F)c(F)c1F | 1.63% (inactive)

Row | Structure (SMILES) | inhibition
51 | O=C(O)C1C2C=CC(C2)C1C(=O)NCCCc1ccccc1 (stereo not given) | 3.67% (inactive)
52 | COC(=O)c1cc2c(s1)CS(=O)C2 (stereo not given) | 14.6% (inactive)
53 | Cc1cccc(C(=O)NNC(=O)Nc2ccccc2)c1 | -2.06% (inactive)
54 | CCCCCC1NC(=O)NC1CCCCCC(=O)O (stereo not given) | 0.1% (inactive)
55 | COc1cc(CNCc2ccco2)ccc1OCc1ccccc1 | 11.6% (inactive)
56 | C=CCNC(=O)/C=C/c1cccs1 | -0.12% (inactive)
57 | CCC(C)NC(=O)C(NS(=O)(=O)c1cccc2nsnc12)c1ccccc1 (stereo not given) | 9.11% (inactive)
58 | Cc1cc(NC(=O)CSc2nnc(Cc3ccccc3)n2C)no1 | 1.71% (inactive)
59 | COc1ccccc1C1/C(=C(/O)c2ccc(C)cc2)C(=O)C(=O)N1CCN1CCOCC1 (stereo not given) | 6.7% (inactive)
60 | Cc1cc(-n2nc(C)cc2C)nc(NS(=O)(=O)c2ccccc2)n1 | 14.8% (inactive)
61 | CN(C)S(=O)(=O)N1CCN(CC(=O)Nc2cc(Cl)ccc2Cl)CC1 | -3.1% (inactive)
62 | CC(=O)Nc1ccccc1Sc1ccc2c3c(cccc13)C(=O)N(c1ccc(C)cc1)C2=O | -0.84% (inactive)
63 | CCCn1nnnc1SCC(=O)N1CCOCC1 | 20.5% (inactive)
64 | CCOC(=O)N(c1ccccc1)P1(=S)OCCO1 | 10.4% (inactive)
65 | CCCCn1c2nc3ccccc3nc2c2c(=O)n(-c3ccccc3)cnc21 | -1.49% (inactive)
66 | N/C(=N\c1nc(CSc2ccc(Cl)cc2)cc(=O)[nH]1)Nc1cccc2ccccc12 | 6.58% (inactive)
67 | C=C(C)CC(NCCc1ccccc1)c1ccco1 (stereo not given) | 1.31% (inactive)
68 | CC(C)C(=O)Nc1ccc(-c2nc3cccnc3o2)cc1 | 15.7% (inactive)
69 | COc1ccccc1-n1c(=O)[nH]c2c(C(N)=O)nc(C3CCCCC3)nc21 | 13.4% (inactive)
70 | Cc1ccc(C)n1NC(=O)c1cccs1 | 7.45% (inactive)
71 | FC(F)(F)c1cnc2c(-c3ccccc3)n[nH]c2c1 | 0.15% (inactive)
72 | Cc1ccc2c(c1)C(c1ccc(F)cc1)N(C(=O)c1cc3ccccc3oc1=O)CC(=O)N2 (stereo not given) | -3.89% (inactive)
73 | Cc1ccc(/C=N/n2c(=O)c(C(C)(C)C)nn3cnnc23)cc1 | 6.53% (inactive)
74 | CN(C)S(=O)(=O)c1ccc(NS(=O)(=O)/C=C/c2ccccc2)cc1 | 0.79% (inactive)
75 | CC(=O)c1c(C)[nH]c(C(=O)Nc2ccccc2N2CCOCC2)c1C | 4.19% (inactive)

Row | Structure (SMILES) | inhibition
76 | CCOC(=O)C1CCCN(Cc2ccccc2F)C1 (stereo not given) | 30.6% (inactive)
77 | CCCCN(CCCC)S(=O)(=O)c1ccc(NC(=O)c2cccs2)cc1 | -4.73% (inactive)
78 | COCCn1c(SCC(=O)c2ccc(Cl)cc2)nnc1C(C)C | -5.2% (inactive)
79 | COc1cccc(-c2cc3c(=O)n(-c4ccccc4)c(=S)[nH]c3s2)c1 | 24.4% (inactive)
80 | CCCCOc1ccc(-c2nnn(C(C)C(=O)OCC)n2)cc1 (stereo not given) | 27.1% (inactive)
81 | CCOc1ccc(NC(=O)COC(=O)C23CC4CC(CC(C4)C2)C3)c([N+](=O)[O-])c1 | 1.77% (inactive)
82 | O=C1N(c2ccccc2)C2CS(=O)(=O)CC2N1c1ccc(Br)cc1 (stereo not given) | 10.8% (inactive)
83 | O=[N+]([O-])c1ccc(N2CCNCC2)cc1NCC1CCCO1 (stereo not given) | -1.91% (inactive)
84 | CCCCN1C(=O)C2C3C=CC(C2C1=O)C1C2C(=O)N(CCCC)C(=O)C2C31 (stereo not given) | 28.4% (inactive)
85 | CCn1c(=O)cc(SCC(=O)N2CCN(C3CCCCC3)CC2)c2ccccc21 | 16.9% (inactive)
86 | CCCCCCOC(=O)C1=C(C)NC(=O)NC1c1ccc(O)cc1 (stereo not given) | 13.9% (inactive)
87 | Cc1ccc(C(=O)c2c(NC(=O)c3ccccc3C)sc(C)c2C)cc1 | 4.34% (inactive)
88 | COc1cccc(/C=N/NC(=O)c2c(-c3ccccc3)noc2C)c1 | 4.18% (inactive)
89 | Cc1ccccc1OCCCC(=O)Nc1ccc(N2CCOCC2)cc1 | 4.18% (inactive)
90 | CC(C)Cc1nnc(NS(C)(=O)=O)s1 | 4.19% (inactive)
91 | O=C(Nc1ccc2nsnc2c1)c1ccc2c(c1)OCO2 | 7.37% (inactive)
92 | COC(=O)Cn1cnc2c1c(=O)n(C)c(=O)n2C | 6.02% (inactive)
93 | CC(C)CCNC(=O)c1nnc(Cc2ccc(Cl)cc2)o1 | 4.7% (inactive)
94 | Cc1ccc2nc(-c3cccc(NC(=O)c4ccc5c(c4)OCCO5)c3)oc2c1 | 4.99% (inactive)
95 | Clc1ccc(Nc2ccc(-n3ccnc3)nn2)cc1Cl | 11.7% (inactive)
96 | O=c1c2ccccc2n2c(-c3cccc(F)c3)nnc2n1Cc1ccccc1 | -8.49% (inactive)
97 | CCOC(=O)c1cnc2ccc(C)cc2c1Nc1ccc(N2CCOCC2)cc1 | 5.86% (inactive)
98 | O=C1CC(N(Cc2cccs2)C(=O)Nc2ccccc2)C(=O)N1c1ccc(Cl)cc1 (stereo not given) | -1.04% (inactive)
99 | COc1cc(/C=C2\SC(=S)N(CC(=O)Nc3ccc(O)cc3)C2=O)cc(OC)c1OC | -1.6% (inactive)
100 | O=C(Nc1ccc(F)cc1)N1CCOCC1 | 29.5% (inactive)
